Source: publication PMC13586308, “Cell type–selective targeting by heterobifunctional protein binders via in-cell enrichment” (Nature Communications, 2026)
Where two headings read alike, the source gives them in different places.

Legend:
BRD3BD1 = target: T1, BRD3BD1 (Homo sapiens, UniProt Q15059); experiment: competitive FP assay, BRD3 BD1 -/+ FKBP12; assay type: binding
T1 construct: to the isolated BD1 and BD2 domains of BRD2, BRD3 and BRD4

BRD4 = target: T2, BRD4 (Homo sapiens, UniProt O60885); experiment: NanoBRET BRD4, transient BRD4-NanoLuc in HEK293T cells; assay type: cell-based; details: intact HEK293 cells
T2 construct: full-length BRD4 fused to NanoLuc at N terminus; expressed in transfected cells; host or cells: HEK293T
Protocol: The NanoBRET assay was performed as described previously[26],[39]. To study BRD4 engagement, we employed two models: cells stably expressing BRD4-NanoLuc and cells with transient BRD4-NanoLuc expression. For stable cell lines, the coding sequence of human BRD4 (Isoform B) was fused in-frame to NanoLuc luciferase under the control of the human ubiquitin C (UbC) promoter, with left and right homology arms targeting the AAVS1 locus in intron 1 of the PPP1R12C gene to facilitate genomic integration. PC3 prostate cancer cells were transfected with this construct and vectors expressing Cas9 and an sgRNA targeting the AAVS1 locus using Lipofectamine 3000 (Invitrogen). Successful integrands were selected with blasticidin. Expression of the fusion protein was confirmed by western blot. For transient experiments, full-length BRD4 fused to NanoLuc at N terminus, was cloned into an expression plasmid and transfected into HEK293T cells using FuGENE HD (Promega, E2312), with protein expression allowed for 20 h. Serially diluted inhibitors and BRD Tracer-02 (Promega, TracerDB ID: T000022) at the Tracer KD concentration (from TracerDB)[40] were dispensed into white 384-well plates (Greiner 781207) using an ECHO 550 acoustic dispenser (Labcyte). The cells were trypsinized, resuspended in Opti-MEM without phenol red (Life Technologies), and seeded at 2 × 10^5 cells/mL. After equilibration for 2 h at 37 °C/5% CO₂ following compound treatment, the NanoBRET® NanoGlo Substrate + Extracellular NanoLuc® Inhibitor (Promega, N2162) was added according to the manufacturer’s protocol, and filtered luminescence was measured on a PHERAstar plate reader (BMG Labtech) using a donor (450 nm BP) and acceptor (610 nm LP) filter pair. Competitive displacement data were analyzed using GraphPad Prism 9 with a normalized 3-parameter curve fit: Y = 100/(1 + 10^(X − log IC₅₀)). For BRET measurements after FKBP12 knockdown in stably expressing BRD4 Nano-Luc reporter cell line, 10 nL/per well of the FKBP12 PROTAC was pipetted to each well using Labcyte to achieve the final concentration of 200 nM and the plated cells were incubated over-night at 37 °C and 5% CO2. BRET measurements were performed as outlined above.

BRD4^BD1 = target: T3, BRD4^BD1 (Homo sapiens, UniProt O60885); experiment: competitive fluorescence polarization assay, BRD4 BD1 -/+ presenter protein; assay type: binding
T3 construct: to the isolated BD1 and BD2 domains of BRD2, BRD3 and BRD4

FKBP12 [1] = target: T4, FKBP12 (Homo sapiens, UniProt P62942); experiment: NanoBRET FKBP12 in intact HEK293 cells; assay type: cell-based
BRD2BD1 = target: T5, BRD2BD1 (Homo sapiens, UniProt P25440); experiment: competitive FP assay, BRD2 BD1 -/+ FKBP12; assay type: binding
T5 construct: to the isolated BD1 and BD2 domains of BRD2, BRD3 and BRD4
T5 sequence (P25440 74-180 limits assumed): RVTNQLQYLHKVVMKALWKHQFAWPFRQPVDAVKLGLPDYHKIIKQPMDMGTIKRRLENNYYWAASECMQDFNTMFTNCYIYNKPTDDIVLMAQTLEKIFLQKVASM

[2] = target: T6, His-BRD4^BD1 + eGFP-FKBP12 (Homo sapiens, UniProt O60885+P62942); experiment: HTRF ternary complex formation BRD4 BD1 + EGFP-FKBP12; assay type: binding; details: eGFP-FKBP12 5 µM, His-BRD4^BD1 100 nM; read-out: HTRF BRD4^BD1 + GFP-FKBP12 Kd
T6 construct: the His6-tag of the respective BD1 or BD2 domain of BRD4 and EGFP-labeled FKBP12

FKBP12 [3] = target: T4, FKBP12; experiment: competitive fluorescence polarization assay, binding to FKBP12; details: competitive FP assay
BRD4 43-463 = BRD4 43-463 (Homo sapiens, UniProt O60885); experiment: competitive FP assay, BRD4 tandem bromo domain construct; assay type: binding
[4] = target: T7, His-BRD4^BD2 + eGFP-FKBP12 (Homo sapiens, UniProt O60885+P62942); experiment: HTRF ternary complex formation BRD4 BD2 + EGFP-FKBP12; assay type: binding; details: eGFP-FKBP12 5 µM, His-BRD4^BD2 100 nM; read-out: HTRF BRD4^BD2 + GFP-FKBP12 Kd
T7 construct: the His6-tag of the respective BD1 or BD2 domain of BRD4 and EGFP-labeled FKBP12

BRD4 43-463 Y97A [5] = experiment: competitive FP assay, BRD4 tandem construct Y97A; assay type: binding
BRD4 43-463 Y97A [6] = target: BRD4 43-463 Y97A (Homo sapiens, UniProt O60885, Y97A); experiment: competitive FP assay, BRD4 tandem construct Y97A; assay type: binding
BRD3BD2 = target: T8, BRD3BD2 (Homo sapiens, UniProt Q15059); experiment: competitive FP assay, BRD3 BD2 -/+ FKBP12; assay type: binding
T8 construct: to the isolated BD1 and BD2 domains of BRD2, BRD3 and BRD4
T8 sequence (Q15059 306-415 limits assumed): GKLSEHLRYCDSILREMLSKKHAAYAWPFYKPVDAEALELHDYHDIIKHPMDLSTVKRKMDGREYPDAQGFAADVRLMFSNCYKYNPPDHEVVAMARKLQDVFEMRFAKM

BRD4 43-463 Y390A [7] = target: BRD4 43-463 Y390A (Homo sapiens, UniProt O60885, Y390A); experiment: competitive FP assay, BRD4 tandem construct Y390A; assay type: binding
BRD4 43-463 Y390A [8] = experiment: competitive FP assay, BRD4 tandem construct Y390A; assay type: binding
BRD4^BD2 = target: T9, BRD4^BD2 (Homo sapiens, UniProt O60885); experiment: competitive fluorescence polarization assay, BRD4 BD2 -/+ presenter protein; assay type: binding
T9 construct: to the isolated BD1 and BD2 domains of BRD2, BRD3 and BRD4

MV4-11 cells = experiment: CellTiter-Glo cell viability, MV4-11; assay type: cell-based, human; details: Homo sapiens, MV4-11, 120 h; five days, without FKBP12 PROTAC; read-out: Cell toxicity (MV4-11) - FKBP12 PROTAC IC50
BRD2BD2 = BRD2BD2 (Homo sapiens, UniProt P25440); experiment: competitive FP assay, BRD2 BD2 -/+ FKBP12; assay type: binding
Chain of BRD2BD2 (P25440 344-453 limits assumed): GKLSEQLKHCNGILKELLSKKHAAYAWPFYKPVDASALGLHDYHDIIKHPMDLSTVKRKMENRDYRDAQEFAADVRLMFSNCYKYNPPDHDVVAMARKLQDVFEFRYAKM

[9] = ratio of binding in absence or presence of FKBP12

T1 sequence (Q15059 34-140 limits assumed): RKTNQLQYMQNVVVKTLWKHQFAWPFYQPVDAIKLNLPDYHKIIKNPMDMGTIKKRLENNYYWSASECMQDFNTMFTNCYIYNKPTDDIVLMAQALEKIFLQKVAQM

Question: For `Cc1sc2c(c1C)C(c1ccc(Cl)cc1)=NC(CC(=O)NCCOCCn1cc(COCC3CN(Cc4ccccn4)C(=O)C4CCCC3N4S(=O)(=O)c3cc(Cl)cc(Cl)c3)nn1)c1nnc(C)n1-2` (centres unmarked) [a1d], which “α BRD3BD1” value (BRD3BD1) is on record?
Answer: Its value is 7.4.

Question: And the Kd (BRD3BD1; 15 µM FKBP12, read-out: Binding to BRD3BD1 + FKBP12 Kd)?
Answer: The Kd was 23 ± 5 nM.

Question: And the Kd (BRD3BD1; absence of FKBP12, read-out: Binding to BRD3BD1 - FKBP12 Kd)?
Answer: Its Kd is 170 ± 27 nM.

Question: What about the IC50 (BRD4) of the same molecule?
Answer: Its IC50 is 820 nM.

Question: What about the Kd (BRD4^BD1; 15 µM FKBP51FK1, read-out: Binding to BRD4BD1 + FKBP51FK1 Kd) of the same molecule?
Answer: Its Kd is 500 ± 90 nM.

Question: What about the Kd (BRD4^BD1; absence of FKBP12, 2 nM JQ1-FL tracer, read-out: Binding to BRD4^BD1 - FKBP12 Kd) of the same molecule?
Answer: Its Kd is 450 ± 70 nM.

Question: What about the Kd (BRD4^BD1; absence of FKBP51FK1 (SI Table 3), read-out: Binding to BRD4BD1 - FKBP51FK1 Kd) of the same molecule?
Answer: The Kd was 300 ± 50 nM.

Question: What about the Kd (BRD4^BD1; presence of 15 µM FKBP12, read-out: Binding to BRD4^BD1 + FKBP12 Kd (converted)) of the same molecule?
Answer: Its Kd is 25 nM.

Question: And the “α BRD4^BD1 (binding cooperativity factor)” value (BRD4^BD1; [9])?
Answer: Its value is 18.

Question: And the Kd (BRD4^BD1; values quoted in rebuttal letter (earlier version of Tab. 1), read-out: binding to BRD4BD1 + FKBP12)?
Answer: Its Kd is 26 nM.

Question: And the IC50 (FKBP12 [1])?
Answer: Its IC50 is 14 nM.

Question: And the “α BRD2BD1” value (BRD2BD1)?
Answer: Its value is 7.2.

Question: What about the Kd (BRD2BD1; 15 µM FKBP12, read-out: Binding to BRD2BD1 + FKBP12 Kd) of the same molecule?
Answer: Its Kd is 36 ± 9 nM.

Question: And the Kd (BRD2BD1; absence of FKBP12, read-out: Binding to BRD2BD1 - FKBP12 Kd)?
Answer: The Kd was 260 ± 60 nM.

Question: What about the Kd [2] of the same molecule?
Answer: Its Kd is 9 ± 3 nM.

Question: And the Kd (FKBP12 [3])?
Answer: Its Kd is 1 nM.

Question: What about the “α BRD4 43-463” value (BRD4 43-463) of the same molecule?
Answer: Its value is 6.7.

Question: And the Kd (BRD4 43-463; Binding to BRD4 43-463 + FKBP12 Kd, 15 µM FKBP12)?
Answer: Its Kd is 26 ± 3 nM.

Question: What about the Kd (BRD4 43-463; Binding to BRD4 43-463 - FKBP12 Kd, absence of FKBP12) of the same molecule?
Answer: Its Kd is 175 ± 17 nM.

Question: And the Kd [4]?
Answer: Its Kd is 26 ± 6 nM.

Question: What about the “α BRD4 43-463 Y97A” value (BRD4 43-463 Y97A [5]) of the same molecule?
Answer: Its value is 2.2.

Question: What about the Kd (BRD4 43-463 Y97A [6]; Binding to BRD4 43-463 Y97A + FKBP12 Kd, 15 µM FKBP12) of the same molecule?
Answer: Its Kd is 59 ± 5 nM.

Question: And the Kd (BRD4 43-463 Y97A [6]; Binding to BRD4 43-463 Y97A - FKBP12 Kd, absence of FKBP12)?
Answer: The Kd was 130 ± 16 nM.

Question: And the “α BRD3BD2” value (BRD3BD2)?
Answer: Its value is 1.0.

Question: What about the Kd (BRD3BD2; 15 µM FKBP12, read-out: Binding to BRD3BD2 + FKBP12 Kd) of the same molecule?
Answer: Its Kd is 140 ± 30 nM.

Question: What about the Kd (BRD3BD2; absence of FKBP12, read-out: Binding to BRD3BD2 - FKBP12 Kd) of the same molecule?
Answer: The Kd was 150 ± 30 nM.

Question: What about the Kd (BRD4 43-463 Y390A [7]; Binding to BRD4 43-463 Y390A + FKBP12 Kd, 15 µM FKBP12) of the same molecule?
Answer: The Kd was 18 ± 2 nM.

Question: And the Kd (BRD4 43-463 Y390A [7]; absence of FKBP12)?
Answer: The Kd was 183 ± 13 nM.

Question: And the “α BRD4 43-463 Y390A” value (BRD4 43-463 Y390A [8])?
Answer: The value was 10.

Question: And the Kd (BRD4^BD2; 15 µM FKBP51FK1, read-out: Binding to BRD4BD2 + FKBP51FK1 Kd)?
Answer: The Kd was 470 ± 80 nM.

Question: And the Kd (BRD4^BD2; absence of FKBP12, 2 nM JQ1-FL tracer, read-out: Binding to BRD4^BD2 - FKBP12 Kd)?
Answer: The Kd was 320 ± 50 nM.

Question: And the Kd (BRD4^BD2; absence of FKBP51FK1 (SI Table 3), read-out: Binding to BRD4BD2 - FKBP51FK1 Kd)?
Answer: Its Kd is 180 ± 30 nM.

Question: And the Kd (BRD4^BD2; presence of 15 µM FKBP12, read-out: Binding to BRD4^BD2 + FKBP12 Kd (converted))?
Answer: The Kd was 70 nM.

Question: And the “α BRD4^BD2 (binding cooperativity factor)” value (BRD4^BD2; [9])?
Answer: Its value is 4.5.

Question: And the IC50 (MV4-11 cells)?
Answer: The IC50 was 1.7 nM.

Question: What about the “α BRD2BD2” value (BRD2BD2) of the same molecule?
Answer: Its value is 2.5.

Question: And the Kd (BRD2BD2; 15 µM FKBP12, read-out: Binding to BRD2BD2 + FKBP12 Kd)?
Answer: The Kd was 75 ± 20 nM.

Question: What about the Kd (BRD2BD2; absence of FKBP12, read-out: Binding to BRD2BD2 - FKBP12 Kd) of the same molecule?
Answer: The Kd was 190 ± 50 nM.
